# Experimental data as given in US20120058099A1, “USE OF HYPOXANTHINE FOR PROMOTION OF NEURONAL OUTGROWTH” (CHILDREN'S MEDICAL CENTER CORPORATION, priority 2009, published 2012).
# Entries after “also recorded” stand apart in the source; their conditions may differ.
# B1: BDNF: brain derived neurotrophic factor (protein, UniProt P23560 19-247, looked up)
# Neurotrophic factor BDNF …: APMKEANIRGQGGLAYPGVRTHGTLESVNGPKAGSRGLTSLADTFEHVIEELLDEDQKVRPNEENNKDADLYTSRVMLSSQVPLEPPLLFLLEEYKNYLDAANMSMRVRRHSDPARRGELSVCDSISEWVTAADKKTAVDMSGGTVTVLEKVPVSKGQLKQYFYETKCNPMGYTKEGCRGIDKRHWNSQCRTTQSYVRALTMDSKKRIGWRFIRIDTSCVCTLTIKRGR
# Experiments:
# [1] = tested on: embryonic cortical neurons; experiment: Embryonic cortical neuron axonal outgrowth with or without BCX-34 (FIG. 2); assay type: cell-based, rat; conditions: inosine or hypoxanthine 100 μM, BDNF 2 ng/ml
# Procedure: (§1) These experiments were done on embryonic cortical neurons. The forebrains of […] rat pups were dissected and plated in media containing serum. After 3 hours the medium was exchanged for Medium E (Irwin et al. 2006) (Proc Nati Acad Sci U S A. 2006 Nov 28;103(48):18320-5). The cells were treated the following day with inosine or hypoxanthine, in the presence and absence of the indicated amount of the inhibitor 6-thioguanine (6-TG), and allowed to grow for 3 days. The 6-TG was added 1 hour before the hypoxanthine or inosine. Following the three days of growth, the cells were fixed and stained with Taul antibody and a fluorescent secondary antibody. Axons were then counted. […] FIG. 1 presents the data obtained.
# In a similar experiment, embryonic cortical neurons were given brain derived neurotrophic factor (BDNF) (2 ng/ml), inosine, or hypoxanthine (100 μM). […] The cells were then scored for neuron axonal outgrowth. The data collected is represented in FIG. 2.
# [2] = tested on: embryonic cortical neurons; experiment: Embryonic cortical neuron axon outgrowth, competition with 6-thioguanine (FIG. 1); assay type: cell-based, rat; conditions: 6-TG 0-80 μM added 1 hour before hypoxanthine or inosine, 3 days growth
# Procedure: FIG. 1 contains two separate sets of bar graphs and line graphs representative of data obtained from embryonic cortical neuron competition experiments.
# as §1
# [3] = tested on: embryonic cortical neurons; experiment: Embryonic cortical neuron outgrowth visualised by Tau1/MAP2 staining (FIG. 3); assay type: cell-based, rat; conditions: for axonal outgrowth (Tau1/MAP2 staining): BDNF 2 ng/ml or hypoxanthine 100 μM, FIG. 3
# From the text: FIG. 3 is a series of photographs of embryonic cortical neurons grown in the presence of the indicated factors (BDNF, hypoxanthine, BDNF+6-thioguanine, BDNF+6-thioguanine+hypoxanthine), which have then been stained with either antibodies to Taul, antibodies to MAP2, or both antibodies to Taul and antibodies to MAP2, in order to visualize neuronal outgrowth.
# as §1
# Embryonic cortical neurons were grown in the presence of BDNF (2 ng/ml), hypoxanthine (100 μM), BDNF (2 ng/ml)+6-thioguanine (20 μM) , or BDNF (2 ng/ml)+6-thioguanine (20 μM)+hypoxanthine (100 μM), as described above. The cells were then fixed and stained with either antibodies to Taul, antibodies to map2, or both antibodies to Taul and antibodies to map2, and corresponding fluorescent secondary antibodies, in order to visualize axonal outgrowth.
# Mst3b = Mst3b (Homo sapiens, UniProt Q9Y6E0); conditions: data not shown
# Chain of Mst3b (Q9Y6E0 whole entry): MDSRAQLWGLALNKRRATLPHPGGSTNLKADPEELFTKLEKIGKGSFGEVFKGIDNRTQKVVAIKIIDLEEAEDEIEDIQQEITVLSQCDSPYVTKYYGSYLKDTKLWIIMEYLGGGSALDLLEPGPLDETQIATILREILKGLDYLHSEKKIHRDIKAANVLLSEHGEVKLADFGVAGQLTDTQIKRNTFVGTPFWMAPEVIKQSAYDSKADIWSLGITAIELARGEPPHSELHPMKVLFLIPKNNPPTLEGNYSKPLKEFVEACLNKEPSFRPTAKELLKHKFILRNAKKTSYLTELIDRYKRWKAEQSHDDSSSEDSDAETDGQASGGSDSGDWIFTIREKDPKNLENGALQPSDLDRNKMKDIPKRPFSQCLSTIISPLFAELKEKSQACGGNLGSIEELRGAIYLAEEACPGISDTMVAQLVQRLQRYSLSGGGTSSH
Molecule,induction of axonal outgrowth [1],inhibition by 6-thioguanine of inosine- and hypoxanthine-induced axon outgrowth [2],inhibition of BDNF stimulated outgrowth ([3]; BDNF 2 ng/ml + 6-thioguanine 20 μM),inhibition by 6-thioguanine of inosine- and hypoxanthine-induced axon outgrowth ([2]; listed as 6-thioguanine),reversal of 6-TG inhibition of BDNF stimulated outgrowth ([3]; BDNF 2 ng/ml + 6-thioguanine 20 μM + hypoxanthine 100 μM),axonal outgrowth (Tau1/MAP2 staining) [3],activation of Mst3b (Mst3b)
"OC[C@H]1O[C@@H](n2cnc3c(O)ncnc32)[C@H](O)[C@@H]1O [inosine, reference compound]",induced axonal outgrowth similarly to BDNF,similarly inhibited by 6-TG,–,–,–,–,–
"Nc1nc2nc[nH]c2c(=S)[nH]1 [6-TG, 6-thioguanine, reference compound]",–,competitively inhibited the actions of both inosine and hypoxanthine,can be inhibited,competitively inhibits the actions of both inosine and hypoxanthine,–,–,–
O=c1[nH]cnc2nc[nH]c12 [hypoxanthine],induced axonal outgrowth similarly to BDNF,similarly inhibited by 6-TG,–,–,inhibition can be overcome; also recorded: inhibition was overcome,cause outgrowth; also recorded: caused axonal outgrowth,activates Mst3b
B1,–,–,–,–,–,cause outgrowth; also recorded: caused axonal outgrowth,–
